In the supplement of paper PMC10307832:

Key:
Assay in all cases: relative viability (nuclei count vs DMSO), 5 days (fraction); higher = more cells survive
GSK126 + Dasatinib = compound: CC[C@H](C)N1C=C(C2=C(C=C(C=C21)C3=CN=C(C=C3)N4CCNCC4)C(=O)NCC5=C(C=C(NC5=O)C)C)C [GSK126] + Cc1nc(Nc2ncc(C(=O)Nc3c(C)cccc3Cl)s2)cc(N2CCN(CCO)CC2)n1 [Dasatinib] (partner 0.075 µM)
Procedure, shortened: (§1)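 Each reported value is a median over duplicate plates. It expresses relative viability: treated-well nuclei count divided by vehicle-well nuclei count. Lung cancer cell lines in 1536-well plates were dosed by pin tool a day after seeding, alone with one drug or with a fixed anchor-drug dose plus five library-drug doses (not always all listed) in √10 steps, and nuclei were counted after 5 days.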

Carboplatin + Decitabine = compound: C1CC(C1)(C(=O)O)C(=O)O.[NH2-].[NH2-].[Pt+2] [Carboplatin] + Nc1ncn([C@H]2C[C@H](O)[C@@H](CO)O2)c(=O)n1 [Decitabine] (partner 2 µM)
Procedure, shortened: as §1

MLN4924 + Trametinib = compound: NS(=O)(=O)OC[C@@H]1C[C@@H](n2ccc3c(N[C@H]4CCc5ccccc54)ncnc32)C[C@@H]1O [MLN4924] + CC(=O)Nc1cccc(-n2c(=O)n(C3CC3)c(=O)c3c(Nc4ccc(I)cc4F)n(C)c(=O)c(C)c32)c1 [Trametinib] (partner 0.02 µM)
Procedure, shortened: as §1

MLN4924 + Bortezomib = compound: NS(=O)(=O)OC[C@@H]1C[C@@H](n2ccc3c(N[C@H]4CCc5ccccc54)ncnc32)C[C@@H]1O [MLN4924] + CC(C)C[C@H](NC(=O)[C@H](Cc1ccccc1)NC(=O)c1cnccn1)B(O)O [Bortezomib] (partner 0.002 µM)
Procedure, shortened: as §1

Cell Line | relative viability (GSK126 + Dasatinib; first compound 0.08 µM) | relative viability (GSK126 + Dasatinib; first compound 0.253 µM) | relative viability (GSK126 + Dasatinib; first compound 0.8 µM) | relative viability (GSK126 + Dasatinib; first compound 2.53 µM) | relative viability (GSK126 + Dasatinib; first compound 8 µM) | relative viability (Carboplatin + Decitabine; first compound 0.08 µM) | relative viability (Carboplatin + Decitabine; first compound 0.253 µM) | relative viability (Carboplatin + Decitabine; first compound 0.8 µM) | relative viability (Carboplatin + Decitabine; first compound 2.53 µM) | relative viability (Carboplatin + Decitabine; first compound 8 µM) | relative viability (MLN4924 + Trametinib; first compound 0.04 µM) | relative viability (MLN4924 + Trametinib; first compound 0.1265 µM) | relative viability (MLN4924 + Trametinib; first compound 0.4 µM) | relative viability (MLN4924 + Trametinib; first compound 1.265 µM) | relative viability (MLN4924 + Trametinib; first compound 4 µM) | relative viability (MLN4924 + Bortezomib; first compound 0.04 µM) | relative viability (MLN4924 + Bortezomib; first compound 0.1265 µM) | relative viability (MLN4924 + Bortezomib; first compound 0.4 µM) | relative viability (MLN4924 + Bortezomib; first compound 1.265 µM) | relative viability (MLN4924 + Bortezomib; first compound 4 µM)
NCI-H3122 | 0.969 | 0.728 | 0.819 | 0.748 | 1.2 | 0.49 | 0.433 | 0.437 | 0.397 | 0.436 | 0.25 | 0.162 | 0.204 | 0.136 | 0.098 | 1.07 | 0.752 | 0.35 | 0.208 | 0.146
HCC-78 | 0.423 | 0.51 | 0.357 | 0.355 | 0.367 | 0.659 | 0.61 | 0.709 | 0.656 | 0.73 | 0.798 | 0.509 | 1.13 | 0.268 | 0.243 | 0.568 | 0.397 | 0.51 | 0.241 | 0.229
HCC-827 | 0.333 | 0.275 | 0.401 | 0.396 | 0.287 | 0.354 | 0.321 | 0.248 | 0.19 | 0.304 | 0.738 | 0.601 | 0.526 | 0.193 | 0.156 | 1.05 | 0.966 | 0.791 | 0.474 | 0.375
Calu-6 |  |  |  |  |  |  |  |  |  |  |  |  |  |  |  | 1 | 0.557 | 0.219 | 0.152 | 0.158
NCI-H2009 | 0.331 | 0.261 | 0.306 | 0.231 | 0.296 | 0.352 | 0.379 | 0.345 | 0.364 | 0.357 | 0.342 | 0.322 | 0.238 | 0.136 | 0.105 | 0.889 | 0.275 | 0.27 | 0.079 | 0.0747
NCI-H322M | 0.247 | 0.252 | 0.266 | 0.278 | 0.27 | 0.74 | 0.723 | 0.711 | 0.763 | 0.62 | 0.662 | 0.735 | 1.03 | 0.452 | 0.389 | 1.24 | 1.36 | 1.2 | 0.302 | 0.463
NCI-H23 | 0.884 | 0.789 | 0.782 | 0.858 | 0.749 | 0.377 | 0.266 | 0.298 | 0.291 | 0.276 | 0.403 | 0.391 | 0.326 | 0.201 | 0.167 | 0.94 | 0.617 | 0.376 | 0.165 | 0.144
NCI-H1648 |  |  |  |  |  | 0.542 | 0.475 | 0.542 | 0.435 | 0.46 | 0.481 | 0.353 | 0.332 | 0.314 | 0.306 |  |  |  |  | 
NCI-H358 | 0.202 | 0.167 | 0.173 | 0.15 | 0.175 | 0.213 | 0.222 | 0.201 | 0.201 | 0.186 | 0.167 | 0.137 | 0.138 | 0.115 | 0.0882 |  |  |  |  | 
NCI-H1944 | 0.236 | 0.213 | 0.229 | 0.24 | 0.297 | 0.456 | 0.456 | 0.437 | 0.417 | 0.363 | 0.388 | 0.353 | 0.329 | 0.193 | 0.186 |  |  |  |  | 
ABC-1 | 0.591 | 0.544 | 0.678 | 0.535 | 0.45 | 1.02 | 1.12 | 1.01 | 0.931 | 0.52 |  |  |  |  |  | 0.344 | 0.331 | 0.259 | 0.274 | 0.211
NCI-H1563 | 0.438 | 0.455 | 0.461 | 0.459 | 0.441 |  |  |  |  |  |  |  |  |  |  | 1.35 | 1.03 | 0.617 | 0.474 | 0.59
HCC-44 |  |  |  |  |  | 0.968 | 0.915 | 0.949 | 0.923 | 0.863 | 0.962 | 0.844 | 0.814 | 0.447 | 0.368 | 0.774 | 0.642 | 0.281 | 0.208 | 0.19
NCI-H522 | 0.871 | 0.699 | 0.794 | 1.02 | 0.775 | 0.646 | 0.685 | 0.614 | 0.655 | 0.644 | 0.638 | 0.696 | 0.691 | 0.314 | 0.386 |  |  |  |  | 
IA-LM |  |  |  |  |  |  |  |  |  |  |  |  |  |  |  | 0.381 | 0.202 | 0.0828 | 0.0567 | 0.0708
NCI-H2228 | 0.597 | 0.513 | 0.522 | 0.562 | 0.493 |  |  |  |  |  | 0.537 | 0.496 | 0.255 | 0.168 | 0.125 |  | 1.03 | 0.309 | 0.121 | 0.166
NCI-H1623 | 0.529 | 0.567 | 0.602 | 0.482 | 0.5 |  |  |  |  |  |  |  |  |  |  |  |  |  |  | 
SK-MES-1 | 0.446 | 0.47 | 0.307 | 0.305 | 0.373 | 0.419 | 0.415 | 0.345 | 0.341 | 0.341 | 0.631 | 0.676 | 0.727 | 0.295 | 0.255 |  |  |  |  | 
NCI-H2170 | 0.544 | 0.533 | 0.574 | 0.612 | 0.686 | 0.507 | 0.476 | 0.465 | 0.428 | 0.343 | 0.879 | 0.537 | 0.467 | 0.155 | 0.126 |  |  |  |  | 
LK-2 | 0.361 | 0.336 | 0.196 | 0.41 | 0.259 | 0.287 | 0.33 | 0.279 | 0.289 | 0.335 | 0.699 | 0.677 | 0.618 | 0.245 | 0.212 |  |  |  |  | 
NCI-H1395 | 0.464 | 0.439 | 0.406 | 0.399 | 0.427 | 0.797 | 0.747 | 0.63 | 0.584 | 0.516 | 1.07 | 1.02 | 0.836 | 0.392 | 0.385 |  |  |  |  | 
